Source: PubChem BioAssay AID330 (DTP/NCI, 2004)
“And” between values parts separate entries of the source, which are not always exact repeats. Equal values may be shown once. Inconclusive results and toxic doses are left out.

Tested on: P388 leukemia ip, CD2F1 mice, survival T/C
Experiment: NCI In Vivo Anticancer Drug Screen. Data for tumor model P388 Leukemia (intraperitoneal) in CD2F1 (CDF1) mice
Details: endpoint: median survival time, higher = longer survival
In short: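 Mice carrying the transplanted tumor received test compound or vehicle. Survival was recorded in each group, and the value is the treated-group measurement divided by that of the vehicle-treated control group.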

[1] = dose: 50.0 mg/kg/injection, schedule: Q01DX005 (ip), vehicle: saline with Tween-80
[2] = dose: 100.0 mg/kg/injection, schedule: Q01DX005 (ip), vehicle: saline with Tween-80
[3] = dose: 200.0 mg/kg/injection, schedule: Q01DX005 (ip), vehicle: saline with Tween-80
[4] = dose: 50.0 mg/kg/injection, schedule: Q01DX005 (ip), vehicle: Klucel (hydroxypropylcellulose) (HPC)
[5] = dose: 100.0 mg/kg/injection, schedule: Q01DX005 (ip), vehicle: Klucel (hydroxypropylcellulose) (HPC)
[6] = dose: 200.0 mg/kg/injection, schedule: Q01DX005 (ip), vehicle: Klucel (hydroxypropylcellulose) (HPC)
[7] = dose: 12.5 mg/kg/injection, schedule: Q01DX009 (ip), vehicle: saline with Tween-80
[8] = dose: 25.0 mg/kg/injection, schedule: Q01DX009 (ip), vehicle: saline with Tween-80
[9] = dose: 50.0 mg/kg/injection, schedule: Q01DX005 (ip), vehicle: saline
[10] = dose: 100.0 mg/kg/injection, schedule: Q01DX005 (ip), vehicle: saline
[11] = dose: 100.0 mg/kg/injection, schedule: Q04DX002 (ip), vehicle: saline
[12] = dose: 200.0 mg/kg/injection, schedule: Q04DX002 (ip), vehicle: saline
[13] = dose: 400.0 mg/kg/injection, schedule: Q04DX002 (ip), vehicle: saline
[14] = dose: 12.5 mg/kg/injection, schedule: Q01DX009 (ip), vehicle: Klucel (hydroxypropylcellulose) (HPC)
[15] = dose: 25.0 mg/kg/injection, schedule: Q01DX009 (ip), vehicle: Klucel (hydroxypropylcellulose) (HPC)
[16] = dose: 50.0 mg/kg/injection, schedule: Q01DX009 (ip), vehicle: Klucel (hydroxypropylcellulose) (HPC)
[17] = dose: 50.0 mg/kg/injection, schedule: Q01DX009 (ip), vehicle: saline with Tween-80
[18] = dose: 100.0 mg/kg/injection, schedule: Q01DX009 (ip), vehicle: saline with Tween-80
[19] = dose: 200.0 mg/kg/injection, schedule: Q01DX009 (ip), vehicle: saline with Tween-80
[20] = dose: 60.0 mg/kg/injection, schedule: Q01DX005 (ip), vehicle: saline with Tween-80
[21] = dose: 120.0 mg/kg/injection, schedule: Q01DX005 (ip), vehicle: saline with Tween-80
[22] = dose: 240.0 mg/kg/injection, schedule: Q01DX005 (ip), vehicle: saline with Tween-80

For `O=C(O)C(=Cc1c2ccccc2cc2ccccc12)C(=O)O`, the T/C [1] was 95 % of control, the T/C [2] was 99 % of control and the T/C [3] was 114 % of control.
`CC(=O)O[C@H]1CC[C@H]2[C@@H]3CCC(=O)CC(=O)CCC(=O)[C@H]3CC[C@]12C` was tested, and the T/C [4] was 108 % of control, the T/C [5] was 109 % of control and the T/C [6] was 105 % of control.
With `CCCCCCCCCCSCC(N)CO` (stereo not given) the T/C (dose: 6.25 mg/kg/injection, schedule: Q01DX009 (ip), vehicle: saline with Tween-80) was 93 % of control, the T/C [7] was 100 % of control and the T/C [8] was 100 % of control.
`CCN(CC)CCCC(C)NC(Cc1ccccc1)c1cccc2ccccc12` (stereo not given) was tested, and the T/C (dose: 25.0 mg/kg/injection, schedule: Q01DX005 (ip), vehicle: suspension in saline) was 100 % of control and the T/C (dose: 50.0 mg/kg/injection, schedule: Q01DX005 (ip), vehicle: suspension in saline) was 106 % of control.
In the case of `C1CN2CCC1C1(C2)SSC2(CN3CCC2CC3)S1` (stereo not given), the T/C (dose: 6.25 mg/kg/injection, schedule: Q01DX009 (ip), vehicle: saline) was 100 % of control, the T/C (dose: 12.5 mg/kg/injection, schedule: Q01DX009 (ip), vehicle: saline) was 95 % of control and the T/C (dose: 25.0 mg/kg/injection, schedule: Q01DX009 (ip), vehicle: saline) was 95 % of control.
With `C1CCN2CSCCCC2C1` (stereo not given) the T/C [9] was 100 % of control, the T/C [10] was 104 % of control and the T/C (dose: 200.0 mg/kg/injection, schedule: Q01DX005 (ip), vehicle: saline) was 111 % of control.
With `CCCCCCCCOc1cc2cc(O)oc3cc(=O)cc(o1)c23` the T/C (dose: 60.0 mg/kg/injection, schedule: Q01DX005 (ip), vehicle: saline) was 108 % of control and the T/C (dose: 120.0 mg/kg/injection, schedule: Q01DX005 (ip), vehicle: saline) was 122 % of control.
With `CCc1cccc(C2(C)C(=O)c3ccccc3C2=O)c1` the T/C [11] was 105 % of control, the T/C [12] was 100 % of control and the T/C [13] was 102 % of control.
In the case of `O=C(O)c1c(Cl)c(Cl)c(Cl)c(Cl)c1-c1c2cc(Br)c(=O)c(Br)c-2oc2c(Br)c(O)c(Br)cc12`, the T/C [1] was 89 % of control and the T/C [2] was 90 % of control.
In the case of `Clc1cc[c]([Sb]2([c]3ccc(Cl)cc3)([c]3ccc(Cl)cc3)[O]C(C(Cl)(Cl)Cl)[O]2)cc1` (stereo not given), the T/C [14] was 99 % of control, the T/C [15] was 104 % of control and the T/C [16] was 100 % of control and 95 % of control.
In the case of `Cc1ccc(C)c(C2NC(=O)c3ccccc3N2)c1` (stereo not given), the T/C [8] was 104 % of control, the T/C [17] was 104 % of control and the T/C [18] was 101 % of control. The T/C [19] was 112 % of control.
In the case of `CCOC(=O)C1(c2ccccc2)CCN(c2c3ccccc3nc3ccccc23)CC1`, the T/C (dose: 25.0 mg/kg/injection, schedule: Q04DX003 (ip), vehicle: Klucel (hydroxypropylcellulose) (HPC)) was 112 % of control, the T/C (dose: 50.0 mg/kg/injection, schedule: Q04DX003 (ip), vehicle: Klucel (hydroxypropylcellulose) (HPC)) was 111 % of control and the T/C (dose: 100.0 mg/kg/injection, schedule: Q04DX003 (ip), vehicle: Klucel (hydroxypropylcellulose) (HPC)) was 111 % of control and 115 % of control.
For `OCCc1cc(Cl)no1`, the T/C [1] was 100 % of control, the T/C [2] was 102 % of control and the T/C [3] was 109 % of control.
`COC(=O)C1c2cc3c(c(O)c2C(O)CC1(C)O)C(=O)c1c(O)cc2c(c1C3=O)OC1OC2(C)C(O)C(N(C)C)C1O` (stereo not given) was tested, and the T/C (dose: 25.0 mg/kg/injection, schedule: Q01DX010 (ip), vehicle: saline) was 100 % of control, the T/C (dose: 50.0 mg/kg/injection, schedule: Q01DX010 (ip), vehicle: saline) was 90 % of control and the T/C (dose: 100.0 mg/kg/injection, schedule: Q01DX010 (ip), vehicle: saline) was 100 % of control. The T/C (dose: 200.0 mg/kg/injection, schedule: Q01DX010 (ip), vehicle: saline) was 100 % of control.
In the case of `O=C(NCC(=O)N1CCCC1)N/N=C/c1ccccc1O`, the T/C [4] was 102 % of control, the T/C [5] was 102 % of control and the T/C [6] was 98 % of control.
In the case of `Cc1ccc(NC(=O)Nc2ncn[nH]2)c(C)c1`, the T/C [17] was 107 % of control, the T/C [18] was 100 % of control and the T/C [19] was 107 % of control.
In the case of `CS(=O)(=O)O/C=C1\CCc2ccccc2C1=O`, the T/C [1] was 98 % of control, the T/C [2] was 98 % of control and the T/C [3] was 105 % of control.
`Cc1ccc(S(=O)(=O)CC2CCc3ccccc3C2=O)cc1` (stereo not given) was tested, and the T/C [11] was 107 % of control, the T/C [12] was 101 % of control and the T/C [13] was 104 % of control.
For `CN(C)CCCOc1ccccc1NC1=C(Cl)C(=O)C(Nc2ccccc2OCCCN(C)C)=C(Cl)C1=O`, the T/C (dose: 6.25 mg/kg/injection, schedule: Q01DX005 (ip), vehicle: Klucel (hydroxypropylcellulose) (HPC)) was 108 % of control, the T/C (dose: 12.5 mg/kg/injection, schedule: Q01DX005 (ip), vehicle: Klucel (hydroxypropylcellulose) (HPC)) was 99 % of control and the T/C (dose: 25.0 mg/kg/injection, schedule: Q01DX005 (ip), vehicle: Klucel (hydroxypropylcellulose) (HPC)) was 97 % of control.
In the case of `O=c1c(-c2ccccc2)c(O)on1/C=C1/C=CC=N1`, the T/C [17] was 105 % of control, the T/C [18] was 95 % of control and the T/C [19] was 103 % of control.
With `N#Cc1c(-c2ccccc2)cn2c1[nH]c(=O)c1c3c(sc12)CCCC3` the T/C [20] was 88 % of control and 89 % of control, the T/C [21] was 87 % of control and the T/C [22] was 86 % of control and 87 % of control.
With `Cc1cc(C)cc(CSCc2c(CSCc3cc(C)cc(C)c3)c(CSCc3cc(C)cc(C)c3)c(CSCc3cc(C)cc(C)c3)c(CSCc3cc(C)cc(C)c3)c2CSCc2cc(C)cc(C)c2)c1` the T/C [17] was 102 % of control, the T/C [18] was 100 % of control and the T/C [19] was 105 % of control.
For `CCOC(=O)[C]1([Sn]([CH3])([CH3])[CH3])N=NC(C(=O)OC)=C1C(=O)OC` (stereo not given), the T/C (dose: 0.78 mg/kg/injection, schedule: Q01DX009 (ip), vehicle: saline) was 98 % of control and the T/C (dose: 1.56 mg/kg/injection, schedule: Q01DX009 (ip), vehicle: saline) was 89 % of control.
`CC1CN1C1=C(Cl)C(=O)C(N2CC2C)=C(Cl)C1=O` (stereo not given) was tested, and the T/C (dose: 3.12 mg/kg/injection, schedule: Q01DX009 (ip), vehicle: Klucel (hydroxypropylcellulose) (HPC)) was 115 % of control.
`CCC1CCC2CCCCN2CO1` (stereo not given) was tested, and the T/C (dose: 12.5 mg/kg/injection, schedule: Q01DX005 (ip), vehicle: saline) was 101 % of control, the T/C (dose: 25.0 mg/kg/injection, schedule: Q01DX005 (ip), vehicle: saline) was 118 % of control and the T/C [9] was 114 % of control and 123 % of control. For the same compound, the T/C [10] was 114 % of control and 121 % of control.
`CCc1nc(N)nc(N)c1-c1ccc(N(C)C2CCCCC2)c([N+](=O)[O-])c1` was tested, and the T/C [20] was 105 % of control and 106 % of control, the T/C [21] was 115 % of control and the T/C [22] was 103 % of control. The T/C (dose: 480.0 mg/kg/injection, schedule: Q01DX005 (ip), vehicle: saline with Tween-80) was 168 % of control.
For `N#Cc1c(-c2nc3ccccc3s2)c(=O)oc2cc(O)ccc12`, the T/C [20] was 99 % of control, the T/C [21] was 95 % of control and the T/C [22] was 95 % of control.
`CN(C)/N=C/c1c[nH]c2ccccc12` was tested, and the T/C (dose: 6.25 mg/kg/injection, schedule: Q01DX009 (ip), vehicle: Klucel (hydroxypropylcellulose) (HPC)) was 105 % of control, the T/C [14] was 103 % of control and the T/C [15] was 100 % of control. The T/C [16] was 118 % of control and the T/C (dose: 100.0 mg/kg/injection, schedule: Q01DX009 (ip), vehicle: Klucel (hydroxypropylcellulose) (HPC)) was 111 % of control.
With `COc1ccc(C2C3=C(CC(C)(C)CC3=O)Oc3cc4c(cc32)OCO4)c(OC)c1` (stereo not given) the T/C [20] was 99 % of control, the T/C [21] was 93 % of control and the T/C [22] was 92 % of control.
For `Cc1cccc(CNc2cccc(C)n2)n1`, the T/C [9] was 105 % of control and the T/C [10] was 97 % of control.
With `NNc1nc2ccccc2s1` the T/C [7] was 105 % of control, the T/C [8] was 107 % of control and the T/C [17] was 98 % of control.
With `CCS/C(C#N)=C/c1ccccc1Cl` the T/C [17] was 103 % of control and the T/C [18] was 112 % of control.
In the case of `CC(O)C(=O)O` (stereo not given), the T/C (dose: 0.06 % in 0.5 ml injection vol, schedule: Q01DX009 (ip), vehicle: water) was 98 % of control and 100 % of control, the T/C (dose: 0.12 % in 0.5 ml injection vol, schedule: Q01DX009 (ip), vehicle: water) was 107 % of control and 95 % of control and the T/C (dose: 0.25 % in 0.5 ml injection vol, schedule: Q01DX009 (ip), vehicle: water) was 93 % of control. The T/C (dose: 0.5 % in 0.5 ml injection vol, schedule: Q01DX009 (ip), vehicle: water) was 99 % of control and 100 % of control, the T/C (dose: 4.0 % in 0.5 ml injection vol, schedule: Q01DX009 (ip), vehicle: water) was 100 % of control and the T/C (dose: 8.0 % in 0.5 ml injection vol, schedule: Q01DX009 (ip), vehicle: water) was 99 % of control and 100 % of control.
